Results on 15 compounds are retold here after patent US20210353693A1, “Live Biotherapeutics to Treat and Prevent Lung Conditions” (priority 2018, published 2021).

Converted amounts (≈) assume the structure as drawn. Where two headings read alike, the source gives them in different places.

This assay relates to LH1. The assay can be described thus: ETEST antibiotic sensitivity of LH1. Type of assay: cell-based. The settings on record: for MIC: read-out: Susceptible to.
Where [1] appears, read: ETEST, LH1, 24-hours anaerobic incubation.

As to `CC(=O)NC[C@H]1CN(c2ccc(N3CCOCC3)c(F)c2)C(=O)O1` [Linezolid], the MIC under setting [1] amounted to 0.5 µg/mL (≈ 1.48 µM).
As for `O=C(O)c1cn(C2CC2)c2cc(N3CCNCC3)c(F)cc2c1=O` [Ciprofloxacin), Ciprofloxacin], the “Resistant to” value under setting [1] was 32 µg/mL.
For `NCC[C@H](O)C(=O)N[C@@H]1C[C@H](N)[C@@H](O[C@H]2O[C@H](CN)[C@@H](O)[C@H](O)[C@H]2O)[C@H](O)[C@H]1O[C@H]1O[C@H](CO)[C@@H](O)[C@H](N)[C@H]1O` [Amikacin], the “Resistant to” value under setting [1] is 48 µg/mL.
On to Amoxicillin/Clavulanic Acid, for which the “Susceptible to” value under setting [1] was determined as 0.125 µg/mL.
For `CC[C@H]1OC(=O)[C@H](C)[C@@H](O[C@H]2C[C@@](C)(OC)[C@@H](O)[C@H](C)O2)[C@H](C)[C@@H](O[C@@H]2O[C@H](C)C[C@H](N(C)C)[C@H]2O)[C@](C)(OC)C[C@@H](C)C(=O)[C@H](C)[C@@H](O)[C@]1(C)O` [Clarithromycin], the MIC (24 h) amounted to 0.16 µg/mL (≈ 0.214 µM).
As for `CO[C@H]1/C=C/O[C@@]2(C)Oc3c(C)c(O)c4c(O)c(c(/C=N/N5CCN(C)CC5)c(O)c4c3C2=O)NC(=O)/C(C)=C\C=C\[C@H](C)[C@H](O)[C@@H](C)[C@@H](O)[C@@H](C)[C@H](OC(C)=O)[C@@H]1C` [Rifampicin], under setting [1], the MIC came to 0.125 µg/mL (≈ 0.152 µM).
In the case of `NC[C@H]1O[C@H](O[C@H]2[C@H](O)[C@@H](O[C@H]3O[C@H](CO)[C@@H](O)[C@H](N)[C@H]3O)[C@H](N)C[C@@H]2N)[C@H](N)C[C@@H]1O` [Tobramycin], the “Resistant to” value under setting [1] was over 512 µg/mL.
`C[C@H]1[C@H](NC(=O)/C(=N\OC(C)(C)C(=O)O)c2csc(N)n2)C(=O)N1S(=O)(=O)O` [Aztreonam]: the MIC under setting [1] stood at 2 µg/mL (≈ 4.59 µM).
Turning to `CCN1CCN(C(=O)N[C@@H](C(=O)N[C@@H]2C(=O)N3[C@@H]2SC(C)(C)[C@@H]3C(=O)O)c2ccccc2)C(=O)C1=O` [Piperacillan], the “Susceptible to” value under setting [1] amounted to 0.19 µg/mL.
Take `C[C@@H](O)[C@H]1C(=O)N2C(C(=O)O)=C(SCCN=CN)C[C@H]12` [Imipenem]: the MIC under setting [1] amounted to 0.094 µg/mL (≈ 0.314 µM).
Same read-out and setting: as for `CN(C)[C@@H]1C(O)=C(C(N)=O)C(=O)[C@@]2(O)C(O)=C3C(=O)c4c(O)cccc4[C@@](C)(O)[C@H]3C[C@@H]12` [Tetracycline], the figure is 0.5 µg/mL (≈ 1.13 µM).
For Trimethoprim/Sulfamethoxazole, under setting [1], the “Resistant to” value turned out to be 32 µg/mL.
The same measure, in the same setting: next, `C[C@H]1COc2c(N3CCN(C)CC3)c(F)cc3c(=O)c(C(=O)O)cn1c23` [Levofloxacin]: 12 µg/mL.
In the case of `CC[C@H]1OC(=O)[C@H](C)[C@@H](O[C@H]2C[C@@](C)(OC)[C@@H](O)[C@H](C)O2)[C@H](C)[C@@H](O[C@@H]2O[C@H](C)C[C@H](N(C)C)[C@H]2O)[C@](C)(O)C[C@@H](C)C(=O)[C@H](C)[C@@H](O)[C@]1(C)O` [Erythromycin], the MIC under setting [1] is 0.023 µg/mL (≈ 0.0313 µM).
The same measure, in the same setting: as for `CN[C@H](CC(C)C)C(=O)N[C@H]1C(=O)N[C@@H](CC(N)=O)C(=O)N[C@H]2C(=O)N[C@H]3C(=O)N[C@H](C(=O)N[C@H](C(=O)O)c4cc(O)cc(O)c4-c4cc3ccc4O)[C@H](O)c3ccc(c(Cl)c3)Oc3cc2cc(c3O[C@@H]2O[C@H](CO)[C@@H](O)[C@H](O)[C@H]2O[C@H]2C[C@](C)(N)[C@H](O)[C@H](C)O2)Oc2ccc(cc2Cl)[C@H]1O` [Vancomycin], the figure is 1.5 µg/mL (≈ 1.04 µM).
